From US4567143A, “Process for preparing 4'-deschlororebeccamycin” (Bristol-Myers Company, priority 1985, dated 1986)
In brackets after ≈: the same amount, converted by molar mass.

Legend:
Solubility = assay type: physicochemical
P-388 leukemia = assay: Effect on transplanted mouse leukemia P-388; assay type: in vivo, mouse (CDF1 F mice); conditions: IP, single injection day 1; for MST % T/C: >125 considered significant tumor inhibition; for Average weight change, day 5: control 0.6; for MST (median survival time): control 11.0
Method: 4'-Deschlororebeccamycin was also tested against the transplanted mouse leukemia P-388 and the results are shown below in Table 6. The methodology used generally followed the protocols of the National Cancer Institute [Cancer Chemotherapy Rep. Part 3, 3, 1-103 (1972)]. The essential experimental details are given at the bottom of Table 6.
Tumor inoculum: 10^6 ascites cells, ip
Treatment: Single injection on day 1 given i.p.
Evaluation: MST = median survival time
Effect: % T/C = (MST treated/MST control) × 100
Criteria: % T/C >125 considered significant tumor inhibition
Control: Saline (0.5 ml) given once daily i.p. for 5 days

[1] = tested on: gram-positive and gram-negative organisms; assay: Antimicrobial activity (general statement); assay type: cell-based
Method: (§1) The antibacterial activity of 4'-deschlororebeccamycin was determined against a number of gram-positive and gram-negative organisms by the serial two-fold agar dilution method. The results are shown in Table 5 below in comparison with the activity of rebeccamycin.

[2] = tested on: List. monocytogenes A15121; assay: Antibacterial activity, serial two-fold agar dilution; assay type: cell-based; conditions: Listeria monocytogenes, read-out: Minimum Inhibitory Concentration (MIC)
Method: as §1

S. coli A20341-1 = assay: as above; assay type: cell-based; conditions: read-out: Minimum Inhibitory Concentration (MIC)
Method: as §1

K. pneumoniae A9664 = assay: as above; assay type: cell-based; conditions: Klebsiella pneumoniae, read-out: Minimum Inhibitory Concentration (MIC)
Method: as §1

[3] = tested on: S. aureus (Pen-Res) A9606; assay: as above; assay type: cell-based; conditions: Staphylococcus aureus, read-out: Minimum Inhibitory Concentration (MIC)
Method: as §1

S. aureus A9537 = assay: as above; assay type: cell-based; conditions: Staphylococcus aureus, read-out: Minimum Inhibitory Concentration (MIC)
Method: as §1

S. coli A15119 = assay: as above; assay type: cell-based; conditions: read-out: Minimum Inhibitory Concentration (MIC)
Method: as §1

S. pneumoniae A9585 = assay: as above; assay type: cell-based; conditions: Streptococcus pneumoniae, read-out: Minimum Inhibitory Concentration (MIC)
Method: as §1

E. cloacae A9659 = assay: as above; assay type: cell-based; conditions: Enterobacter cloacae, read-out: Minimum Inhibitory Concentration (MIC)
Method: as §1

P. aeruginosa A9843A = assay: as above; assay type: cell-based; conditions: Pseudomonas aeruginosa, read-out: Minimum Inhibitory Concentration (MIC)
Method: as §1

P. rettgeri A22424 = assay: as above; assay type: cell-based; conditions: Providencia rettgeri, read-out: Minimum Inhibitory Concentration (MIC)
Method: as §1

S. marcescens A20019 = assay: as above; assay type: cell-based; conditions: Serratia marcescens, read-out: Minimum Inhibitory Concentration (MIC)
Method: as §1

M. morganii A15153 = assay: as above; assay type: cell-based; conditions: Morganella morganii, read-out: Minimum Inhibitory Concentration (MIC)
Method: as §1

M. luteus A9547 = assay: as above; assay type: cell-based; conditions: Micrococcus luteus, read-out: Minimum Inhibitory Concentration (MIC)
Method: as §1

[4] = tested on: List. monocytogenes A20025; assay: as above; assay type: cell-based; conditions: Listeria monocytogenes, read-out: Minimum Inhibitory Concentration (MIC)
Method: as §1

P. aeruginosa A21213 = assay: as above; assay type: cell-based; conditions: Pseudomonas aeruginosa, read-out: Minimum Inhibitory Concentration (MIC)
Method: as §1

S. pyogenes A9604 = assay: as above; assay type: cell-based; conditions: Streptococcus pyogenes, read-out: Minimum Inhibitory Concentration (MIC)
Method: as §1

P. mirabilis A9900 = assay: as above; assay type: cell-based; conditions: Proteus mirabilis, read-out: Minimum Inhibitory Concentration (MIC)
Method: as §1

E. cloacae A9656 = assay: as above; assay type: cell-based; conditions: Enterobacter cloacae, read-out: Minimum Inhibitory Concentration (MIC)
Method: as §1

S. faecalis A20688 = assay: as above; assay type: cell-based; conditions: Enterococcus faecalis, read-out: Minimum Inhibitory Concentration (MIC)
Method: as §1

P. vulgaris A21559 = assay: as above; assay type: cell-based; conditions: Proteus vulgaris, read-out: Minimum Inhibitory Concentration (MIC)
Method: as §1

K. pneumoniae A20468 = assay: as above; assay type: cell-based; conditions: Klebsiella pneumoniae, read-out: Minimum Inhibitory Concentration (MIC)
Method: as §1

**Q.** What does the source list for `COC1C(CO)OC(n2c3c(Cl)cccc3c3c4c(c5c6ccccc6[nH]c5c32)C(=O)NC4=O)C(O)C1O` (stereo not drawn) [4'-Deschlororebeccamycin]?
**A.** solubility in dimethylsulfoxide (Solubility; dimethylsulfoxide): soluble; solubility in water (Solubility; water): insoluble; MST % T/C (P-388 leukemia; 16 mg/kg/inj): 164%; Average weight change, day 5 (P-388 leukemia; 16 mg/kg/inj): -0.9 gm; MST (median survival time) (P-388 leukemia; 16 mg/kg/inj): 18.0 days; MST % T/C (P-388 leukemia; 32 mg/kg/inj): 141%; Average weight change, day 5 (P-388 leukemia; 32 mg/kg/inj): -0.8 gm; MST (median survival time) (P-388 leukemia; 32 mg/kg/inj): 15.5 days; MST % T/C (P-388 leukemia; 64 mg/kg/inj): 136%; Average weight change, day 5 (P-388 leukemia; 64 mg/kg/inj): -0.8 gm; MST (median survival time) (P-388 leukemia; 64 mg/kg/inj): 15.0 days; MST % T/C (P-388 leukemia; 128 mg/kg/inj): 159%; Average weight change, day 5 (P-388 leukemia; 128 mg/kg/inj): -0.6 gm; MST (median survival time) (P-388 leukemia; 128 mg/kg/inj): 17.5 days; MST % T/C (P-388 leukemia; 256 mg/kg/inj): 136%; Average weight change, day 5 (P-388 leukemia; 256 mg/kg/inj): -1.5 gm; MST (median survival time) (P-388 leukemia; 256 mg/kg/inj): 15.0 days; MST % T/C (P-388 leukemia; 512 mg/kg/inj): 141%; Average weight change, day 5 (P-388 leukemia; 512 mg/kg/inj): -1.0 gm; MST (median survival time) (P-388 leukemia; 512 mg/kg/inj): 15.5 days; antimicrobial activity [1]: exhibits antimicrobial activity; MIC [2]: 32 µg/mL (≈ 59.7 µM); MIC (S. coli A20341-1): > 250 µg/mL; MIC (K. pneumoniae A9664): > 250 µg/mL; MIC [3]: > 250 µg/mL; MIC (S. aureus A9537): 2 µg/mL (≈ 3.73 µM); MIC (S. coli A15119): > 250 µg/mL; MIC (S. pneumoniae A9585): 32 µg/mL (≈ 59.7 µM); MIC (E. cloacae A9659): > 250 µg/mL; MIC (P. aeruginosa A9843A): > 250 µg/mL; MIC (P. rettgeri A22424): > 250 µg/mL; MIC (S. marcescens A20019): > 250 µg/mL; MIC (M. morganii A15153): > 250 µg/mL; MIC (M. luteus A9547): 1 µg/mL (≈ 1.87 µM); MIC [4]: 63 µg/mL (≈ 118 µM); MIC (P. aeruginosa A21213): > 250 µg/mL; MIC (S. pyogenes A9604): 32 µg/mL (≈ 59.7 µM); MIC (P. mirabilis A9900): > 250 µg/mL; MIC (E. cloacae A9656): > 250 µg/mL; MIC (S. faecalis A20688): 16 µg/mL (≈ 29.9 µM); MIC (P. vulgaris A21559): > 250 µg/mL; MIC (K. pneumoniae A20468): > 250 µg/mL

**Q.** For `CO[C@H]1[C@H](O)[C@@H](O)[C@H](n2c3c(Cl)cccc3c3c4c(c5c6cccc(Cl)c6[nH]c5c32)C(=O)NC4=O)O[C@@H]1CO` [Rebeccamycin], which “MST % T/C” value (P-388 leukemia; 16 mg/kg/inj) is on record?
**A.** 136%

**Q.** And the “Average weight change, day 5” value (P-388 leukemia; 16 mg/kg/inj)?
**A.** -0.8 gm

**Q.** What about the “MST (median survival time)” value (P-388 leukemia; 16 mg/kg/inj) of the same compound?
**A.** 15.0 days

**Q.** And the “MST % T/C” value (P-388 leukemia; 32 mg/kg/inj)?
**A.** 118%

**Q.** And the “Average weight change, day 5” value (P-388 leukemia; 32 mg/kg/inj)?
**A.** -0.6 gm

**Q.** What about the “MST (median survival time)” value (P-388 leukemia; 32 mg/kg/inj) of the same compound?
**A.** 13.0 days

**Q.** What about the “MST % T/C” value (P-388 leukemia; 64 mg/kg/inj) of the same compound?
**A.** 136%

**Q.** What about the “Average weight change, day 5” value (P-388 leukemia; 64 mg/kg/inj) of the same compound?
**A.** 0.3 gm

**Q.** And the “MST (median survival time)” value (P-388 leukemia; 64 mg/kg/inj)?
**A.** 15.0 days

**Q.** What about the “MST % T/C” value (P-388 leukemia; 128 mg/kg/inj) of the same compound?
**A.** 132%

**Q.** What about the “Average weight change, day 5” value (P-388 leukemia; 128 mg/kg/inj) of the same compound?
**A.** 0.2 gm

**Q.** What about the “MST (median survival time)” value (P-388 leukemia; 128 mg/kg/inj) of the same compound?
**A.** 14.5 days

**Q.** And the “MST % T/C” value (P-388 leukemia; 256 mg/kg/inj)?
**A.** 136%

**Q.** What about the “Average weight change, day 5” value (P-388 leukemia; 256 mg/kg/inj) of the same compound?
**A.** -0.3 gm

**Q.** What about the “MST (median survival time)” value (P-388 leukemia; 256 mg/kg/inj) of the same compound?
**A.** 15.0 days

**Q.** And the “MST % T/C” value (P-388 leukemia; 512 mg/kg/inj)?
**A.** 155%

**Q.** What about the “Average weight change, day 5” value (P-388 leukemia; 512 mg/kg/inj) of the same compound?
**A.** -1.4 gm

**Q.** What about the “MST (median survival time)” value (P-388 leukemia; 512 mg/kg/inj) of the same compound?
**A.** 17.0 days

**Q.** And the MIC [2]?
**A.** 32 µg/mL (≈ 56.1 µM)

**Q.** What about the MIC (S. coli A20341-1) of the same compound?
**A.** > 250 µg/mL

**Q.** And the MIC (K. pneumoniae A9664)?
**A.** > 250 µg/mL

**Q.** And the MIC [3]?
**A.** > 250 µg/mL

**Q.** And the MIC (S. aureus A9537)?
**A.** 0.5 µg/mL (≈ 0.877 µM)

**Q.** What about the MIC (S. coli A15119) of the same compound?
**A.** > 250 µg/mL

**Q.** And the MIC (S. pneumoniae A9585)?
**A.** > 125 µg/mL

**Q.** What about the MIC (E. cloacae A9659) of the same compound?
**A.** > 250 µg/mL

**Q.** And the MIC (P. aeruginosa A9843A)?
**A.** > 250 µg/mL

**Q.** What about the MIC (P. rettgeri A22424) of the same compound?
**A.** > 250 µg/mL

**Q.** What about the MIC (S. marcescens A20019) of the same compound?
**A.** > 250 µg/mL

**Q.** What about the MIC (M. morganii A15153) of the same compound?
**A.** > 250 µg/mL

**Q.** And the MIC (M. luteus A9547)?
**A.** 0.5 µg/mL (≈ 0.877 µM)

**Q.** And the MIC [4]?
**A.** 32 µg/mL (≈ 56.1 µM)

**Q.** And the MIC (P. aeruginosa A21213)?
**A.** > 250 µg/mL

**Q.** And the MIC (S. pyogenes A9604)?
**A.** > 125 µg/mL

**Q.** And the MIC (P. mirabilis A9900)?
**A.** > 250 µg/mL

**Q.** And the MIC (E. cloacae A9656)?
**A.** > 250 µg/mL

**Q.** What about the MIC (S. faecalis A20688) of the same compound?
**A.** 8 µg/mL (≈ 14 µM)

**Q.** And the MIC (P. vulgaris A21559)?
**A.** > 250 µg/mL

**Q.** What about the MIC (K. pneumoniae A20468) of the same compound?
**A.** > 250 µg/mL
